# Data taken from US11104619B2, “Mixture for treating fertilizers containing urea” (EuroChem Agro GmbH, priority 2015, dated 2021).
# Read-outs that look alike come from different tables or passages of the source.
# Tests used:
# nitrification [1] = experiment: Soil incubation trial: recovery of applied urea N as ammonium; details: for percentage recovery in the form of ammonium, % of applied urea (13 mg N): 28 days after application, Filder loam pH 6.8, 20° C., 200 kg urea N/ha, label gives UI/NI fraction of recommended rate (0.6 g NBPT, 3.6 g DMPSA per kg urea)
# Procedure: % of applied urea (13 mg N)
# A determination was carried out 28 days after application of the urea, with the percentage recovery in the form of ammonium being reported.
# nitrification [2] = experiment: Soil incubation trial: cumulative laughing gas (N2O-N) emission; details: 77 mg N applied; for N2O—N cumulative, % of appl.: cumulative over 28 days
# urease [3] = details: for Ammonia emission, % of the urea applied (77 mg N): Filder loam, 20° C., label gives UI/NI fraction of recommended rate
# Procedure: Screening trials were conducted to evaluate the effect of DMPSA and NBPT in the inhibition of urease and inhibition of nitrification, and to find suitable quantities for use. Serving for this purpose was a two-factorial trial design including an unfertilized control sample. For the urease inhibitor NBPT and for the nitrification inhibitor DMPSA, in each case 0%, 33%, 66% and 100% of the application rates recommended for the individual compounds when used alone were used (in this example, 0.6 g of NBPT per kg of urea and, respectively, 3.6 g of DMPSA per kg of urea), giving 16 trials (0%-0% to 100%-100%), in addition to the unfertilized control sample.
# Urea fertilizer was delivered in an amount of 200 kg nitrogen per ha, corresponding to 0.51 mg of urea nitrogen per g of soil. The soil used was Filder loam with a pH of 6.8. The incubation trials were carried out at 20° C. For the investigation of trace gases, air supply was passed first through a gas sample, then through a 250 ml capacity glass bottle containing 150 g of soil, subsequently through a gas sample for the outgoing air and through an acid trap, in order, for example, to determine amounts of ammonia. For the measurement of nitrogen, about 20 g of soil were incubated; for the measurement of urea, about 5 g of soil.
# urease [4] = experiment: Screening trials: hydrolysis of urea in soil; details: first few days of application; with DMPSA present
# nitrification [5] = experiment: Soil incubation trial: nitrate formed from applied urea N; details: Filder loam, 20° C., label gives UI/NI fraction of recommended rate
# Procedure: % of the urea applied (13 mg N)
compound,measurement,setting,value
"CCCCNP(N)(N)=S [NBPT, N-(n-butyl)thiophosphoric triamide]","percentage recovery in the form of ammonium, % of applied urea (13 mg N)",nitrification [1]; listed as UI 1 NI 0,28%
same,"percentage recovery in the form of ammonium, % of applied urea (13 mg N)",nitrification [1]; listed as UI ⅓ NI 0,9%
same,"percentage recovery in the form of ammonium, % of applied urea (13 mg N)",nitrification [1]; listed as UI ⅔ NI 0,21%
same,supplementary influence on ammonium recovery,nitrification [1]; after 28 days,no supplementary influence
same,N2O—N cumulative,"nitrification [2]; 0 days after appl., 150 g soil",0 μg N2O—N Bottle^1
same,N2O—N cumulative,nitrification [2]; 0.5 days after appl.,0 μg N2O—N Bottle^1
same,N2O—N cumulative,"nitrification [2]; 1 day after appl., listed as UI-1_NI-0",2 μg N2O—N Bottle^1
same,N2O—N cumulative,"nitrification [2]; 1 day after appl., listed as UI-2_NI-0",1 μg N2O—N Bottle^1
same,N2O—N cumulative,"nitrification [2]; 1 day after appl., listed as UI-3_NI-0",2 μg N2O—N Bottle^1
same,N2O—N cumulative,"nitrification [2]; 2 days after appl., listed as UI-1_NI-0",3 μg N2O—N Bottle^1
same,N2O—N cumulative,"nitrification [2]; 2 days after appl., listed as UI-2_NI-0",2 μg N2O—N Bottle^1
same,N2O—N cumulative,"nitrification [2]; 2 days after appl., listed as UI-3_NI-0",7 μg N2O—N Bottle^1
same,N2O—N cumulative,"nitrification [2]; 3 days after appl., listed as UI-1_NI-0",4 μg N2O—N Bottle^1
same,N2O—N cumulative,"nitrification [2]; 3 days after appl., listed as UI-2_NI-0",3 μg N2O—N Bottle^1
same,N2O—N cumulative,"nitrification [2]; 3 days after appl., listed as UI-3_NI-0",10 μg N2O—N Bottle^1
same,N2O—N cumulative,"nitrification [2]; 4 days after appl., listed as UI-1_NI-0",5 μg N2O—N Bottle^1
same,N2O—N cumulative,"nitrification [2]; 4 days after appl., listed as UI-2_NI-0",3 μg N2O—N Bottle^1
same,N2O—N cumulative,"nitrification [2]; 4 days after appl., listed as UI-3_NI-0",11 μg N2O—N Bottle^1
same,N2O—N cumulative,"nitrification [2]; 5 days after appl., listed as UI-1_NI-0",7 μg N2O—N Bottle^1
same,N2O—N cumulative,"nitrification [2]; 5 days after appl., listed as UI-2_NI-0",4 μg N2O—N Bottle^1
same,N2O—N cumulative,"nitrification [2]; 5 days after appl., listed as UI-3_NI-0",12 μg N2O—N Bottle^1
same,N2O—N cumulative,"nitrification [2]; 6 days after appl., listed as UI-1_NI-0",16 μg N2O—N Bottle^1
same,N2O—N cumulative,"nitrification [2]; 6 days after appl., listed as UI-2_NI-0",8 μg N2O—N Bottle^1
same,N2O—N cumulative,"nitrification [2]; 6 days after appl., listed as UI-3_NI-0",13 μg N2O—N Bottle^1
same,N2O—N cumulative,"nitrification [2]; 8 days after appl., listed as UI-1_NI-0",32 μg N2O—N Bottle^1
same,N2O—N cumulative,"nitrification [2]; 8 days after appl., listed as UI-2_NI-0",16 μg N2O—N Bottle^1
same,N2O—N cumulative,"nitrification [2]; 8 days after appl., listed as UI-3_NI-0",20 μg N2O—N Bottle^1
same,N2O—N cumulative,"nitrification [2]; 10 days after appl., listed as UI-1_NI-0",48 μg N2O—N Bottle^1
same,N2O—N cumulative,"nitrification [2]; 10 days after appl., listed as UI-2_NI-0",36 μg N2O—N Bottle^1
same,N2O—N cumulative,"nitrification [2]; 10 days after appl., listed as UI-3_NI-0",31 μg N2O—N Bottle^1
same,N2O—N cumulative,"nitrification [2]; 12 days after appl., listed as UI-1_NI-0",75 μg N2O—N Bottle^1
same,N2O—N cumulative,"nitrification [2]; 12 days after appl., listed as UI-2_NI-0",67 μg N2O—N Bottle^1
same,N2O—N cumulative,"nitrification [2]; 12 days after appl., listed as UI-3_NI-0",52 μg N2O—N Bottle^1
same,N2O—N cumulative,"nitrification [2]; 14 days after appl., listed as UI-1_NI-0",122 μg N2O—N Bottle^1
same,N2O—N cumulative,"nitrification [2]; 14 days after appl., listed as UI-2_NI-0",125 μg N2O—N Bottle^1
same,N2O—N cumulative,"nitrification [2]; 14 days after appl., listed as UI-3_NI-0",90 μg N2O—N Bottle^1
same,N2O—N cumulative,"nitrification [2]; 17 days after appl., listed as UI-1_NI-0",144 μg N2O—N Bottle^1
same,N2O—N cumulative,"nitrification [2]; 17 days after appl., listed as UI-2_NI-0",145 μg N2O—N Bottle^1
same,N2O—N cumulative,"nitrification [2]; 17 days after appl., listed as UI-3_NI-0",99 μg N2O—N Bottle^1
same,N2O—N cumulative,"nitrification [2]; 18 days after appl., listed as UI-1_NI-0",179 μg N2O—N Bottle^1
same,N2O—N cumulative,"nitrification [2]; 18 days after appl., listed as UI-2_NI-0",190 μg N2O—N Bottle^1
same,N2O—N cumulative,"nitrification [2]; 18 days after appl., listed as UI-3_NI-0",125 μg N2O—N Bottle^1
same,N2O—N cumulative,"nitrification [2]; 20 days after appl., listed as UI-1_NI-0",203 μg N2O—N Bottle^1
same,N2O—N cumulative,"nitrification [2]; 20 days after appl., listed as UI-2_NI-0",215 μg N2O—N Bottle^1
same,N2O—N cumulative,"nitrification [2]; 20 days after appl., listed as UI-3_NI-0",141 μg N2O—N Bottle^1
same,N2O—N cumulative,"nitrification [2]; 22 days after appl., listed as UI-1_NI-0",238 μg N2O—N Bottle^1
same,N2O—N cumulative,"nitrification [2]; 22 days after appl., listed as UI-2_NI-0",249 μg N2O—N Bottle^1
same,N2O—N cumulative,"nitrification [2]; 22 days after appl., listed as UI-3_NI-0",156 μg N2O—N Bottle^1
same,N2O—N cumulative,"nitrification [2]; 24 days after appl., listed as UI-1_NI-0",343 μg N2O—N Bottle^1
same,N2O—N cumulative,"nitrification [2]; 24 days after appl., listed as UI-2_NI-0",312 μg N2O—N Bottle^1
same,N2O—N cumulative,"nitrification [2]; 24 days after appl., listed as UI-3_NI-0",174 μg N2O—N Bottle^1
same,N2O—N cumulative,"nitrification [2]; 28 days after appl., listed as UI-1_NI-0",497 μg N2O—N Bottle^1
same,N2O—N cumulative,"nitrification [2]; 28 days after appl., listed as UI-2_NI-0",397 μg N2O—N Bottle^1
same,N2O—N cumulative,"nitrification [2]; 28 days after appl., listed as UI-3_NI-0",194 μg N2O—N Bottle^1
same,"N2O—N cumulative, % of appl.",nitrification [2]; listed as UI-1_NI-0,0.65 % of appl.
same,"N2O—N cumulative, % of appl.",nitrification [2]; listed as UI-2_NI-0,0.52 % of appl.
same,"N2O—N cumulative, % of appl.",nitrification [2]; listed as UI-3_NI-0,0.25 % of appl.
same,reduction in ammonia emissions,"urease [3]; 66% NBPT, especially 9 days after application",notable and almost complete reduction in ammonia emissions
same,"Ammonia emission, % of the urea applied (77 mg N)","urease [3]; 4 days after application, listed as UI 1 NI 0",0.0%
same,"Ammonia emission, % of the urea applied (77 mg N)","urease [3]; 4 days after application, listed as UI ⅓ NI 0",0.3%
same,"Ammonia emission, % of the urea applied (77 mg N)","urease [3]; 4 days after application, listed as UI ⅔ NI 0",0.1%
same,"Ammonia emission, % of the urea applied (77 mg N)","urease [3]; 9 days after application, listed as UI 1 NI 0",0.0%
same,"Ammonia emission, % of the urea applied (77 mg N)","urease [3]; 9 days after application, listed as UI ⅓ NI 0",1.1%
same,"Ammonia emission, % of the urea applied (77 mg N)","urease [3]; 9 days after application, listed as UI ⅔ NI 0",0.2%
same,effect on the increase in ammonia emission caused by the nitrification inhibitor,urease [3]; addition of NBPT,prevent the increase in ammonia emission
same,inhibition of the hydrolysis of urea,urease [4],sufficiently inhibits the hydrolysis of urea
same,"Nitrate, % of the urea applied (13 mg N)","nitrification [5]; 5 days after application, listed as UI 1 NI 0",11%
same,"Nitrate, % of the urea applied (13 mg N)","nitrification [5]; 5 days after application, listed as UI ⅓ NI 0",10%
same,"Nitrate, % of the urea applied (13 mg N)","nitrification [5]; 5 days after application, listed as UI ⅔ NI 0",11%
same,"Nitrate, % of the urea applied (13 mg N)","nitrification [5]; 28 days after application, listed as UI 1 NI 0",52%
same,"Nitrate, % of the urea applied (13 mg N)","nitrification [5]; 28 days after application, listed as UI ⅓ NI 0",58%
same,"Nitrate, % of the urea applied (13 mg N)","nitrification [5]; 28 days after application, listed as UI ⅔ NI 0",64%
